Assay results from patent US4956376A, “Tetrazole carboxylic acids and esters and inhibition of blood platelet aggregation therewith” (Bristol-Myers Squibb Company, priority 1990, dated 1990).
Converted amounts (≈) assume the structure as drawn. Where two headings read alike, the source gives them in different places.

System: human platelet aggregation
Type: cell-based
Conditions: human platelet rich plasma, ADP 0.5 mcg/mL
[1] = Table 2, read-out: Inhibition of Human Platelet Aggregation of Formula II Compounds (IC50) Vs ADP
[2] = Table 1, read-out: Inhibition of Human Platelet Aggregation of Formula I Compounds (IC50) vs. ADP

Experimental: The aggregometer method of Born, C. […] Clin. Med. 1964, 64, 548-599 was used to assess the in vitro activity of the various compounds as to the inhibition of adenosine diphosphate (ADP) and collagen-induced platelet aggregation. The human volunteer donor's arm is cleansed with 70% ethyl alcohol. A sterile 20 ml syringe and needle are used to withdraw 20 ml of blood. The blood is immediately added to a test tube containing 3.8% sodium citrate to prevent clotting (1 part citrate to 9 parts blood).
Platelet rich plasma (PRP) was separated by centrifugation for 10 minutes at 1000 rpm (140 xg) from citrated (3.8%) human blood. All glassware used for preparation of PRP is silicon treated. ADP in final concentration of 0.5 mcg/mL or 0.05 mL of a collagen suspension prepared according to the method described by Evans, G., et al., J. Exp. Med., 1968, 128, 877-894 was used to induce aggregation. The various compounds tested were dissolved in dimethylsulfoxide (DMSO) so that 5 mcl added to the platelet rich plasma would yield the desired test concentration. Vehicle control trials were done and compared with aggregation induced in platelet rich plasma containing various concentrations of the test compounds. Dose response curves were obtained and Inhibitor Concentration (IC50) values calculated.

Structure (SMILES)	IC50 [1]	IC50 [2]
COC(=O)COc1cccc(CCn2nnc(C(c3ccccc3)c3ccccc3)n2)c1 [Example 3, Methyl [3-[2-[5-(diphenylmethyl)-2H-tetrazol-2-yl]ethyl]-phenoxy]acetate]	0.9 µg/mL (≈ 2.1 µM)	
O=C(O)CCCCCCCCn1nnc(C(c2ccccc2)c2ccccc2)n1 [Example 2, 5-(Diphenylmethyl)-2H-tetrazole-1-nonanoic acid]		4.2 µg/mL (≈ 10.7 µM)
O=C(O)COc1cccc(CCn2nnc(C(c3ccccc3)c3ccccc3)n2)c1 [Example 4, [3-[2-[5-(Diphenylmethyl)-2H-tetrazol-2-yl]ethyl]phenoxy]-acetic Acid]	1.4 µg/mL (≈ 3.38 µM)	
COC(=O)CCCCCCCCn1nnc(C(c2ccccc2)c2ccccc2)n1 [Example 1, Methyl 5-(diphenylmethyl)-2H-tetrazole-2-nonanoate]		> 32 µg/mL
